Where two headings read alike, the source gives them in different places. Starred links: 1 amine or outer side, 2 acyl side, 3 side chain; linkers in the order of their positions; H or OH if unused. Positions of bridges follow the written chain, without caps; N, C: chain ends. Non-standard residues stand in square brackets, D forms with d. Residues, ends and D or L forms follow the SMILES beside them. Groups on a side chain read outwards from the residue. *: point of attachment. Trp(1-CH2CO2Me) = COC(=O)Cn1cc(C[C@H](N)C(=O)O)c2ccccc21; Trp(1-CH2COOH) = N[C@@H](Cc1cn(CC(=O)O)c2ccccc12)C(=O)O; X18 = O=[N+]([O-])c1ccc(NC(=S)*)c(Cl)c1; X24 = COc1cc(NC(=S)*)ccc1-n1cnc(C)n1; X79 = CCn1c2ccccc2c2cc(NC(=S)*)ccc21; Pyrazinecarbonyl = O=C(c1cnccn1)*; Hyp = O=C(O)[C@@H]1C[C@@H](O)CN1; X32 = c1ccc2c(c1)Cc1cc(N*)ccc1-2; X34 = O=C(c1c2ccccc2cc2ccccc12)*; X80 = S=C(Nc1ccc(-n2cccn2)cc1)*; X36 = c1ccc(Oc2cccc(N*)c2)cc1; X55 = COc1cc(NC(=S)*)cc(OC)c1; NMeNle = CCCC[C@H](NC)C(=O)O; X93 = c1cc2c(c(N*)c1)CCCC2; X74 = Cc1cc(C)c(N*)c(C)c1; NMeA = CN[C@@H](C)C(=O)O; Dab = NCC[C@H](N)C(=O)O; X76 = Fc1cc(N*)cc(F)c1F; Dap = NC[C@H](N)C(=O)O; X77 = Clc1cccc(N*)c1Cl; CO = O=C([*:1])[*:2]
Molecular target: T1, PD-1/PD-L1 (Homo sapiens, UniProt Q9NZQ7)
T1 construct: TVMV protease site linker (C); made in house; host or cells: HEK293T cells
T1 sequence (Q9NZQ7 18-239): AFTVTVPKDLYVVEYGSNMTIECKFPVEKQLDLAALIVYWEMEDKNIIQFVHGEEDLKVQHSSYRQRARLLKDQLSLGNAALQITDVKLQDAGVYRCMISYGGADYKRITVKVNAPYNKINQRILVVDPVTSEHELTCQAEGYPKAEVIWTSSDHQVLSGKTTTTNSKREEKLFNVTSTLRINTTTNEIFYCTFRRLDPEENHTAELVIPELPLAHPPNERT
Assay: PD-1/PD-L1 Homogenous Time-Resolved Fluorescence (HTRF) binding assay
In short: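 HTRF read-out using europium cryptate anti-Ig (1 nM) and APC anti-His (20 nM) on extracellular-domain fusion proteins in dPBS/0.1% BSA/0.05% Tween-20. Inhibitor first incubated 15 min with 10 nM PD-L1-His, followed by 20 nM PD-1-Ig for another 15 min.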

[1] = PD-L1-His 10 nM pre-incubated with inhibitor, PD-1-Ig 20 nM, read-out: HTRF IC50

SMILES	IC50 [1]	IC50
CCCC[C@H]1C(=O)N(C)[C@@H](CCCC)C(=O)N[C@@H](CC(C)C)C(=O)N[C@H](C(=O)NCC(N)=O)CSCC(=O)N[C@@H](Cc2ccc(O)cc2)C(=O)N(C)[C@@H](C)C(=O)N[C@@H](CC(N)=O)C(=O)N2CCC[C@H]2C(=O)N[C@@H](CNC(=O)Nc2cc(F)c(F)c(F)c2)C(=O)N[C@@H](CC(C)C)C(=O)N2C[C@H](O)C[C@H]2C(=O)N[C@@H](Cc2c[nH]c3ccccc23)C(=O)N[C@@H](CCNC(=O)Nc2cc(F)c(F)c(F)c2)C(=O)N[C@@H](Cc2cn(CC(=O)O)c3ccccc23)C(=O)N1C [Example 1012] ({CH2CO}-Y[NMeA]NP[Dap]([CO-X76])L[Hyp]W[Dab]([CO-X76])[Trp(1-CH2COOH)][NMeNle][NMeNle]LCG-NH2; thioether N-14)	4.8 nM	–
CCCC[C@H]1C(=O)N(C)[C@@H](CCCC)C(=O)N[C@@H](CC(C)C)C(=O)N[C@H](C(=O)NCC(N)=O)CSCC(=O)N[C@@H](Cc2ccc(O)cc2)C(=O)N(C)[C@@H](C)C(=O)N[C@@H](CC(N)=O)C(=O)N2CCC[C@H]2C(=O)N[C@@H](CNC(=O)c2c3ccccc3cc3ccccc23)C(=O)N[C@@H](CC(C)C)C(=O)N2C[C@H](O)C[C@H]2C(=O)N[C@@H](Cc2c[nH]c3ccccc23)C(=O)N[C@@H](CCNC(=O)c2c3ccccc3cc3ccccc23)C(=O)N[C@@H](Cc2cn(CC(=O)O)c3ccccc23)C(=O)N1C [Example 2011] ({CH2CO}-Y[NMeA]NP[Dap](X34)L[Hyp]W[Dab](X34)[Trp(1-CH2COOH)][NMeNle][NMeNle]LCG-NH2; thioether N-14)	4.7 nM	–
CCCC[C@H]1C(=O)N(C)[C@@H](CCCC)C(=O)N[C@@H](CC(C)C)C(=O)N[C@H](C(=O)NCC(N)=O)CSCC(=O)N[C@@H](Cc2ccc(O)cc2)C(=O)N(C)[C@@H](C)C(=O)N[C@@H](CC(N)=O)C(=O)N2CCC[C@H]2C(=O)N[C@@H](CNC(=O)Nc2cccc(Cl)c2Cl)C(=O)N[C@@H](CC(C)C)C(=O)N2C[C@H](O)C[C@H]2C(=O)N[C@@H](Cc2c[nH]c3ccccc23)C(=O)N[C@@H](CCN)C(=O)N[C@@H](Cc2cn(CC(=O)O)c3ccccc23)C(=O)N1C [Example 1071] ({CH2CO}-Y[NMeA]NP[Dap]([CO-X77])L[Hyp]W[Dab][Trp(1-CH2COOH)][NMeNle][NMeNle]LCG-NH2; thioether N-14)	–	2.3 nM
CCCC[C@H]1C(=O)N(C)[C@@H](CCCC)C(=O)N[C@@H](CC(C)C)C(=O)N[C@H](C(=O)NCC(N)=O)CSCC(=O)N[C@@H](Cc2ccc(O)cc2)C(=O)N(C)[C@@H](C)C(=O)N[C@@H](CC(N)=O)C(=O)N2CCC[C@H]2C(=O)N[C@@H](CNC(=O)Nc2ccc3c(c2)Cc2ccccc2-3)C(=O)N[C@@H](CC(C)C)C(=O)N2C[C@H](O)C[C@H]2C(=O)N[C@@H](Cc2c[nH]c3ccccc23)C(=O)N[C@@H](CCNC(=O)Nc2ccc3c(c2)Cc2ccccc2-3)C(=O)N[C@@H](Cc2cn(CC(=O)O)c3ccccc23)C(=O)N1C [Example 2008] ({CH2CO}-Y[NMeA]NP[Dap]([CO-X32])L[Hyp]W[Dab]([CO-X32])[Trp(1-CH2COOH)][NMeNle][NMeNle]LCG-NH2; thioether N-14)	–	46.7 nM
CCCC[C@H]1C(=O)N(C)[C@@H](CCCC)C(=O)N[C@@H](CC(C)C)C(=O)N[C@H](C(=O)NCC(N)=O)CSCC(=O)N[C@@H](Cc2ccc(O)cc2)C(=O)N(C)[C@@H](C)C(=O)N[C@@H](CC(N)=O)C(=O)N2CCC[C@H]2C(=O)N[C@@H](CNC(=O)c2cnccn2)C(=O)N[C@@H](CC(C)C)C(=O)N2C[C@H](O)C[C@H]2C(=O)N[C@@H](Cc2c[nH]c3ccccc23)C(=O)N[C@@H](CCNC(=O)c2cnccn2)C(=O)N[C@@H](Cc2cn(CC(=O)OC)c3ccccc23)C(=O)N1C [Example 1002] ({CH2CO}-Y[NMeA]NP[Dap](Pyrazinecarbonyl)L[Hyp]W[Dab](Pyrazinecarbonyl)[Trp(1-CH2CO2Me)][NMeNle][NMeNle]LCG-NH2; thioether N-14)	3.5 nM	–
CCCC[C@H]1C(=O)N(C)[C@@H](CCCC)C(=O)N[C@@H](CC(C)C)C(=O)N[C@H](C(=O)NCC(N)=O)CSCC(=O)N[C@@H](Cc2ccc(O)cc2)C(=O)N(C)[C@@H](C)C(=O)N[C@@H](CC(N)=O)C(=O)N2CCC[C@H]2C(=O)N[C@@H](CNC(=O)Nc2cccc(Oc3ccccc3)c2)C(=O)N[C@@H](CC(C)C)C(=O)N2C[C@H](O)C[C@H]2C(=O)N[C@@H](Cc2c[nH]c3ccccc23)C(=O)N[C@@H](CCNC(=O)Nc2cccc(Oc3ccccc3)c2)C(=O)N[C@@H](Cc2cn(CC(=O)O)c3ccccc23)C(=O)N1C [Example 1020] ({CH2CO}-Y[NMeA]NP[Dap]([CO-X36])L[Hyp]W[Dab]([CO-X36])[Trp(1-CH2COOH)][NMeNle][NMeNle]LCG-NH2; thioether N-14)	24 nM	–
CCCC[C@H]1C(=O)N(C)[C@@H](CCCC)C(=O)N[C@@H](CC(C)C)C(=O)N[C@H](C(=O)NCC(N)=O)CSCC(=O)N[C@@H](Cc2ccc(O)cc2)C(=O)N(C)[C@@H](C)C(=O)N[C@@H](CC(N)=O)C(=O)N2CCC[C@H]2C(=O)N[C@@H](CNC(=O)Nc2cccc3c2CCCC3)C(=O)N[C@@H](CC(C)C)C(=O)N2C[C@H](O)C[C@H]2C(=O)N[C@@H](Cc2c[nH]c3ccccc23)C(=O)N[C@@H](CCNC(=O)Nc2cccc3c2CCCC3)C(=O)N[C@@H](Cc2cn(CC(=O)O)c3ccccc23)C(=O)N1C [Example 3015] ({CH2CO}-Y[NMeA]NP[Dap]([CO-X93])L[Hyp]W[Dab]([CO-X93])[Trp(1-CH2COOH)][NMeNle][NMeNle]LCG-NH2; thioether N-14)	–	0.7 nM
CCCC[C@H]1C(=O)N(C)[C@@H](CCCC)C(=O)N[C@@H](CC(C)C)C(=O)N[C@H](C(=O)NCC(N)=O)CSCC(=O)N[C@@H](Cc2ccc(O)cc2)C(=O)N(C)[C@@H](C)C(=O)N[C@@H](CC(N)=O)C(=O)N2CCC[C@H]2C(=O)N[C@@H](CNC(=O)Nc2c(C)cc(C)cc2C)C(=O)N[C@@H](CC(C)C)C(=O)N2C[C@H](O)C[C@H]2C(=O)N[C@@H](Cc2c[nH]c3ccccc23)C(=O)N[C@@H](CCNC(=O)Nc2c(C)cc(C)cc2C)C(=O)N[C@@H](Cc2cn(CC(=O)O)c3ccccc23)C(=O)N1C [Example 1081] ({CH2CO}-Y[NMeA]NP[Dap]([CO-X74])L[Hyp]W[Dab]([CO-X74])[Trp(1-CH2COOH)][NMeNle][NMeNle]LCG-NH2; thioether N-14)	2.7 nM	–

Second part, led by results:

IC50 [1]	SMILES	IC50
8.1 nM	CCCC[C@H]1C(=O)N(C)[C@@H](CCCC)C(=O)N[C@@H](CC(C)C)C(=O)N[C@H](C(=O)NCC(N)=O)CSCC(=O)N[C@@H](Cc2ccc(O)cc2)C(=O)N(C)[C@@H](C)C(=O)N[C@@H](CC(N)=O)C(=O)N2CCC[C@H]2C(=O)N[C@@H](CNC(=S)Nc2ccc3c(c2)c2ccccc2n3CC)C(=O)N[C@@H](CC(C)C)C(=O)N2C[C@H](O)C[C@H]2C(=O)N[C@@H](Cc2c[nH]c3ccccc23)C(=O)N[C@@H](CCNC(=S)Nc2ccc3c(c2)c2ccccc2n3CC)C(=O)N[C@@H](Cc2cn(CC(=O)O)c3ccccc23)C(=O)N1C [Example 2013] ({CH2CO}-Y[NMeA]NP[Dap](X79)L[Hyp]W[Dab](X79)[Trp(1-CH2COOH)][NMeNle][NMeNle]LCG-NH2; thioether N-14)	–
3.4 nM	CCCC[C@H]1C(=O)N(C)[C@@H](CCCC)C(=O)N[C@@H](CC(C)C)C(=O)N[C@H](C(=O)NCC(N)=O)CSCC(=O)N[C@@H](Cc2ccc(O)cc2)C(=O)N(C)[C@@H](C)C(=O)N[C@@H](CC(N)=O)C(=O)N2CCC[C@H]2C(=O)N[C@@H](CNC(=S)Nc2ccc(-n3cnc(C)n3)c(OC)c2)C(=O)N[C@@H](CC(C)C)C(=O)N2C[C@H](O)C[C@H]2C(=O)N[C@@H](Cc2c[nH]c3ccccc23)C(=O)N[C@@H](CCNC(=S)Nc2ccc(-n3cnc(C)n3)c(OC)c2)C(=O)N[C@@H](Cc2cn(CC(=O)O)c3ccccc23)C(=O)N1C [Example 1092] ({CH2CO}-Y[NMeA]NP[Dap](X24)L[Hyp]W[Dab](X24)[Trp(1-CH2COOH)][NMeNle][NMeNle]LCG-NH2; thioether N-14)	–
9 nM	CCCC[C@H]1C(=O)N(C)[C@@H](CCCC)C(=O)N[C@@H](CC(C)C)C(=O)N[C@H](C(=O)NCC(N)=O)CSCC(=O)N[C@@H](Cc2ccc(O)cc2)C(=O)N(C)[C@@H](C)C(=O)N[C@@H](CC(N)=O)C(=O)N2CCC[C@H]2C(=O)N[C@@H](CNC(=S)Nc2ccc([N+](=O)[O-])cc2Cl)C(=O)N[C@@H](CC(C)C)C(=O)N2C[C@H](O)C[C@H]2C(=O)N[C@@H](Cc2c[nH]c3ccccc23)C(=O)N[C@@H](CCN)C(=O)N[C@@H](Cc2cn(CC(=O)O)c3ccccc23)C(=O)N1C [Example 1111] ({CH2CO}-Y[NMeA]NP[Dap](X18)L[Hyp]W[Dab][Trp(1-CH2COOH)][NMeNle][NMeNle]LCG-NH2; thioether N-14)	–
4.2 nM	CCCC[C@H]1C(=O)N(C)[C@@H](CCCC)C(=O)N[C@@H](CC(C)C)C(=O)N[C@H](C(=O)NCC(N)=O)CSCC(=O)N[C@@H](Cc2ccc(O)cc2)C(=O)N(C)[C@@H](C)C(=O)N[C@@H](CC(N)=O)C(=O)N2CCC[C@H]2C(=O)N[C@@H](CNC(=S)Nc2cc(OC)cc(OC)c2)C(=O)N[C@@H](CC(C)C)C(=O)N2C[C@H](O)C[C@H]2C(=O)N[C@@H](Cc2c[nH]c3ccccc23)C(=O)N[C@@H](CCNC(=S)Nc2cc(OC)cc(OC)c2)C(=O)N[C@@H](Cc2cn(CC(=O)O)c3ccccc23)C(=O)N1C [Example 1086] ({CH2CO}-Y[NMeA]NP[Dap](X55)L[Hyp]W[Dab](X55)[Trp(1-CH2COOH)][NMeNle][NMeNle]LCG-NH2; thioether N-14)	–
2.4 nM	CCCC[C@H]1C(=O)N(C)[C@@H](CCCC)C(=O)N[C@@H](CC(C)C)C(=O)N[C@H](C(=O)NCC(N)=O)CSCC(=O)N[C@@H](Cc2ccc(O)cc2)C(=O)N(C)[C@@H](C)C(=O)N[C@@H](CC(N)=O)C(=O)N2CCC[C@H]2C(=O)N[C@@H](CNC(=S)Nc2ccc(-n3cccn3)cc2)C(=O)N[C@@H](CC(C)C)C(=O)N2C[C@H](O)C[C@H]2C(=O)N[C@@H](Cc2c[nH]c3ccccc23)C(=O)N[C@@H](CCNC(=S)Nc2ccc(-n3cccn3)cc2)C(=O)N[C@@H](Cc2cn(CC(=O)O)c3ccccc23)C(=O)N1C [Example 1094] ({CH2CO}-Y[NMeA]NP[Dap](X80)L[Hyp]W[Dab](X80)[Trp(1-CH2COOH)][NMeNle][NMeNle]LCG-NH2; thioether N-14)	–

Reference: patent US20220389061A1, “IMMUNOMODULATORS” (priority 2019, published 2022)
